Assay [1] concerns the target T1, Fatty acid synthase (Homo sapiens, UniProt P49327). Put plainly: FAS thioesterase domain inhibitors, dose response, biochemical, endpoint fluorescence intensity, uHTS hits (AID 624327).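 Note: fluorescence from hydrolysis of an O-methyl fluorescein acyl ester substrate by the enzyme.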 Format: functional.
Assay [2] deals with T1, Fatty acid synthase. Kind of assay: FAS thioesterase domain inhibitors, dose response, biochemical, kinetic fluorescence intensity (AID 624326).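 Note: rate of fluorescence rise from hydrolysis of a fluorogenic O-methyl fluorescein ester substrate.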 Format: functional.
Another assay deals with T2, Leucine aminopeptidase (Plasmodium falciparum 3D7, UniProt Q8IL11).
T2 sequence (Q8IL11 whole entry): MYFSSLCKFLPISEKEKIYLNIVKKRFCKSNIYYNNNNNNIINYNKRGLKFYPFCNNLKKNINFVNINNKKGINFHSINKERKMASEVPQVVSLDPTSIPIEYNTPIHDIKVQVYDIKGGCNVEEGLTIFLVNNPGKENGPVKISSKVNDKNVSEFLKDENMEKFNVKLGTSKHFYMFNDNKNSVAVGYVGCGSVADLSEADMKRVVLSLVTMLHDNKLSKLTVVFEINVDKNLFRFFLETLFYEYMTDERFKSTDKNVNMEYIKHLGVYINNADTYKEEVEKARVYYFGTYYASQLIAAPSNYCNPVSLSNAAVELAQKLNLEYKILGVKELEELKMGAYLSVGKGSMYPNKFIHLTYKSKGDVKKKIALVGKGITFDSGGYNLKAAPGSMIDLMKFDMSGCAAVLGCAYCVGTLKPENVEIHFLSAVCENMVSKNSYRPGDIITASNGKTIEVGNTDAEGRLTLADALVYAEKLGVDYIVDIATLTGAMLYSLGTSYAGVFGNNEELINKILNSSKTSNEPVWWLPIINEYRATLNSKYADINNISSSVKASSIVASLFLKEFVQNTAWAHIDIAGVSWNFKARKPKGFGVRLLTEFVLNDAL
Put plainly: P. falciparum M17LAP inhibitors, primary screen, biochemical, fluorogenic H-Leu-NHMec substrate, 1536-well (AID 1619). Format: functional.

For assay [3], the target named is T3, Rac GTPase-activating protein 1 (Homo sapiens, UniProt Q9H0H5).
T3 sequence (Q9H0H5 whole entry): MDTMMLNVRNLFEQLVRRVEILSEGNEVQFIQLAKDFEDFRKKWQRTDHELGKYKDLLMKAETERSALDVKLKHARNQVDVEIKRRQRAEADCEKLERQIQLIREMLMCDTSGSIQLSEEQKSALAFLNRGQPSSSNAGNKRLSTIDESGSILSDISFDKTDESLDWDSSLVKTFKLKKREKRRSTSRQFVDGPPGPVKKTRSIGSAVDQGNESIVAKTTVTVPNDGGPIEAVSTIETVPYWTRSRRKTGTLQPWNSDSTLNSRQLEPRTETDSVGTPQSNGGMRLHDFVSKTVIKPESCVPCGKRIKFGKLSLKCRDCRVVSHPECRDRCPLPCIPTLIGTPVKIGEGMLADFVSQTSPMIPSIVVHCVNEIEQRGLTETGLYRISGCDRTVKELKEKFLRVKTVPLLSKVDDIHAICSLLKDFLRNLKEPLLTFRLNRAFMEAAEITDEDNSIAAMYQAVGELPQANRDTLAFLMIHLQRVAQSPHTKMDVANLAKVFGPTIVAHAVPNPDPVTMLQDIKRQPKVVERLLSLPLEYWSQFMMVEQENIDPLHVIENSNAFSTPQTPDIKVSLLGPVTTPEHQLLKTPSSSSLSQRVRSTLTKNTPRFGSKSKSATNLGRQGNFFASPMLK
Kind of assay: MgcRacGAP GTPase-activating activity inhibitors, confirmation, biochemical, ADP Hunter fluorescence, primary and confirmatory (AID 624330). It is filed as functional.

The nature of assay [4]: cells. Format: functional, cell-based.
The nature of assay [5]: cells. Format: functional, cell-based. This is another data set of the same source.
A short description of assay [6]: inhibitors of HIV Env-driven cell fusion, dose response, cherry-pick (AID 652057). Format: functional, cell-based.
Assay [7] in a line: inhibitors of clade B AD8 Env fusion, dose response, cell-based, cherry-pick (AID 652062).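 Note: luciferase signal from cell-cell fusion driven by HIV-1 clade B AD8 Env; potency is for inhibitors of fusion seen as a drop in luminescence.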 It is filed as functional.
The nature of assay [8]: ZM109 Env clade C HIV-1 fusion inhibitors, dose response, HeLa effector, CEM target cells, luciferase, cherry-pick (AID 652058). It is filed as functional, cell-based.
Assay [9] can be described thus: off-target signal loss in HeLa-CEM21 co-culture – HeLa F-luc CTL cells, cherry-picked, counter-screen for HIV-1 Env fusion inhibitor project, dose response (AID 652040).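 Note: potency for signal decrease marking cytotoxic or nonspecific inhibition.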 Format: functional, cell-based. A general note: A counterscreen serves to expose hits that act by an unwanted route or on another target.
Assay [10] addresses T4, Calpain-2 catalytic subunit (Sus scrofa, UniProt P43367).
T4 sequence (P43367 whole entry): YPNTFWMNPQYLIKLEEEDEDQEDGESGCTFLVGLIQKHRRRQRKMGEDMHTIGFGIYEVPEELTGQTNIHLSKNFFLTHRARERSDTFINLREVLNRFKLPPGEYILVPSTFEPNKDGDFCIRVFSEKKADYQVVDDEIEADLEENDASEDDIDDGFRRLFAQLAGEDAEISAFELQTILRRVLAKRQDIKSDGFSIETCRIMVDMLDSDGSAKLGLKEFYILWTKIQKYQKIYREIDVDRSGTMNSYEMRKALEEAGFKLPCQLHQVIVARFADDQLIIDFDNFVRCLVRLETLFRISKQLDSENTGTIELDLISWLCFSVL
Kind of assay: pig calpain II inhibitor potency, dose response, biochemical, fluorogenic peptide substrate (AID 1420). It is filed as functional.

Assay [11] in a line: THP-1 cell cytotoxicity, dose response, cytotoxicity control for non-replicating M. tuberculosis project (AID 489025). Format: functional.

Activity calls are given as the source filed them. A value given as a limit tells only on which side of the number the result lay.

The IC50 is the concentration that gives 50% inhibition. As usually defined, the EC50 is the concentration that produces a half-maximal response. For orientation: AC50 means the concentration at which the activity in the assay is half-maximal. The CC50 is the concentration giving 50% cytotoxicity.

T1 sequence (P49327 whole entry, the tested form may be a part): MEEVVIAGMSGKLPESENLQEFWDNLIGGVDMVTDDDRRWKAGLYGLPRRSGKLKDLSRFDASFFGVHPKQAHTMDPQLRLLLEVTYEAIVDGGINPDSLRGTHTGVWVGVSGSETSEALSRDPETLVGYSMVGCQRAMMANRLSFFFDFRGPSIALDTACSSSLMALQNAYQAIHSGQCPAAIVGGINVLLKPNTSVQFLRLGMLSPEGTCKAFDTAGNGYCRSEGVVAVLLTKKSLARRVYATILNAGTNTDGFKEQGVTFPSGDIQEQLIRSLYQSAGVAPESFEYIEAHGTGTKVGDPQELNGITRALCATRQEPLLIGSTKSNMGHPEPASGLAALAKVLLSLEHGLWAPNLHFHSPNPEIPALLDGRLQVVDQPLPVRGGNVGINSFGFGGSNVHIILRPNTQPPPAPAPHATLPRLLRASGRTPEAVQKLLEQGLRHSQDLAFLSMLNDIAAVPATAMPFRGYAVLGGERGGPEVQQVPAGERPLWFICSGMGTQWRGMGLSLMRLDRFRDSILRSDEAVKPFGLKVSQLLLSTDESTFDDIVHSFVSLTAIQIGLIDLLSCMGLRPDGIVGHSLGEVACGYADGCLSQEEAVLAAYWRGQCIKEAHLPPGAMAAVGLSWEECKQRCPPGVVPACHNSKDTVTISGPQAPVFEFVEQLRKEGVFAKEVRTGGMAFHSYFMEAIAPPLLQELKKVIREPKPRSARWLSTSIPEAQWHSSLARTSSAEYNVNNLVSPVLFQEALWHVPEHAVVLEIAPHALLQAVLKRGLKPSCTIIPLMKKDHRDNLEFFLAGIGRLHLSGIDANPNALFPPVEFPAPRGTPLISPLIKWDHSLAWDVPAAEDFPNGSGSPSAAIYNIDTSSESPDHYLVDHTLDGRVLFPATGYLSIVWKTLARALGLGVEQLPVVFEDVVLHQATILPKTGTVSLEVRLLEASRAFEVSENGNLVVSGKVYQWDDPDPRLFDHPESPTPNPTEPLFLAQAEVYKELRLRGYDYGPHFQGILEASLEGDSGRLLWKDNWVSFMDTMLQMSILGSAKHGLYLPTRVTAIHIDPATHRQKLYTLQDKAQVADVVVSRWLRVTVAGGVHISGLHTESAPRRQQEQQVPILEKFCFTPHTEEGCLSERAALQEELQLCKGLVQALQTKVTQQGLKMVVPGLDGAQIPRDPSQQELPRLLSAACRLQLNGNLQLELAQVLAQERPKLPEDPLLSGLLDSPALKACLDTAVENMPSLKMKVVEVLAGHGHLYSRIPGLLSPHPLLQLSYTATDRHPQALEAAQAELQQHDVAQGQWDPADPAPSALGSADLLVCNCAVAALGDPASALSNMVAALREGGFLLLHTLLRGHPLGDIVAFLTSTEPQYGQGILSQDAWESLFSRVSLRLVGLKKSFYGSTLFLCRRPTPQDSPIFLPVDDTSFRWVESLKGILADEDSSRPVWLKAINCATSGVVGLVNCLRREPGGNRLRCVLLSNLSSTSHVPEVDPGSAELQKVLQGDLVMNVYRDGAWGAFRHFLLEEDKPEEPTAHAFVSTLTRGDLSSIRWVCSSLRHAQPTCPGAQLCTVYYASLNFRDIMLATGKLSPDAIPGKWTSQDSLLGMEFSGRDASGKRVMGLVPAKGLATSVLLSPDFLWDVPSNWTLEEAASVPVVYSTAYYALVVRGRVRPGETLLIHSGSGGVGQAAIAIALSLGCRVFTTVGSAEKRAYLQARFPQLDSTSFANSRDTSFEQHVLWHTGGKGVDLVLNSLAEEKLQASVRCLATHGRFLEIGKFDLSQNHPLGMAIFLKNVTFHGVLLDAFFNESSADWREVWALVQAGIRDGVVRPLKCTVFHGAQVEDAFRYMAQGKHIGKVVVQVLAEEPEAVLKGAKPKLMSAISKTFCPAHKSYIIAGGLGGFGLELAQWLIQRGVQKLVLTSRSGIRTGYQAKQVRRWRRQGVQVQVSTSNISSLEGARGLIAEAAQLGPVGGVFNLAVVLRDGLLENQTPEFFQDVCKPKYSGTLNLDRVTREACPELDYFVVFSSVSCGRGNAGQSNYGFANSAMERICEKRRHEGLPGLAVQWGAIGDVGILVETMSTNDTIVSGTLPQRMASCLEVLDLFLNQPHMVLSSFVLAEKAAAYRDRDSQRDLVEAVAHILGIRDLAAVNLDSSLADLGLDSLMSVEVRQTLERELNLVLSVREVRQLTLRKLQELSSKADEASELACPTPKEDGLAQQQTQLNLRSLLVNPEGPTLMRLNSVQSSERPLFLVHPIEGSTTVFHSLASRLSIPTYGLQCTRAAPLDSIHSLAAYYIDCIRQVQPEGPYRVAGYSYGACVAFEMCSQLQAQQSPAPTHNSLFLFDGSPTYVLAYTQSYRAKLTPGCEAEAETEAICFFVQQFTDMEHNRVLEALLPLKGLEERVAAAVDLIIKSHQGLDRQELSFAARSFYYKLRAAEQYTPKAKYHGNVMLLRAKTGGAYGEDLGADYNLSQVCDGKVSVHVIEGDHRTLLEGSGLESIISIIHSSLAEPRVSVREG

`CCn1cc([N+](=O)[O-])c(C(=O)N2N=C(c3ccccc3)CC2c2ccc([N+](=O)[O-])cc2)n1` (stereo unspecified): the IC50 was 15.6 µM (active) at Fatty acid synthase [1] and 13.2 µM (active) on Fatty acid synthase [2].
Take `CCOc1ccc(Nc2nnc(S)s2)cc1`: the IC50 at Leucine aminopeptidase was < 1 µM (active); in assay [3], 54.8 µM (active).
As to `O=C(CN1C(=O)C2C3C=CC(C3)C2C1=O)NCC1COc2ccccc2O1` (stereo unspecified), the concentration for half-maximal inhibition (IC50) on Leucine aminopeptidase is 2.19 µM (active).
Still for that read-out and setting: next, `Cc1noc(NS(=O)(=O)c2ccc(NC(=O)Nc3ccc(Cl)c(Cl)c3)cc2)c1C`: 9.03 µM (active).
In the case of `C/C=C/C=N/NC(=O)CN(c1ccc(Br)cc1)S(=O)(=O)c1ccccc1`, the IC50 at Fatty acid synthase [1] was 10.6 µM (active); at Fatty acid synthase [2], 10.1 µM (active).
The like results for `CC(NC(=O)C(C(=O)c1cccc([N+](=O)[O-])c1)n1cc(Cl)ccc1=O)c1ccccc1` (stereo unspecified) were, in that order, 8.63 µM (active) and 7.89 µM (active).
`COc1ccc(C/C(C)=N/NS(=O)(=O)c2ccc(Br)cc2)cc1`: the EC50 in the assay “cells [4]” and in the assay “cells [5]” was > 350 µM (not active) each time.
`O=C(O)c1cnn2cc(-c3n[nH]cc3[N+](=O)[O-])cnc12`: the IC50 on Leucine aminopeptidase is 13.3 µM (active).
Still for that read-out and setting: next, `CCC1(C)Cc2sc3c(=O)[nH]c(=S)[nH]c3c2CO1` (stereo unspecified): 29.3 µM (active).
For `Cc1cc(=O)oc2cc(OCC(=O)N3CCN(C(C)c4ccccc4)CC3)c(Cl)cc12` (stereo unspecified), the IC50 on Fatty acid synthase [1] is 8.39 µM (active); at Fatty acid synthase [2], 8.55 µM (active).
In the case of `Cc1ccc(C(C(=O)NC2CCCCC2)N(C(=O)c2csnn2)C2CCCC2)o1` (stereo unspecified), the AC50 is 14.1 µM (active) in assay [6], 6.08 µM (active) in assay [7], 3.63 µM (active) in assay [8] and 13.5 µM (active) in assay [9].
With `CCCOc1ccc(N2C(=O)CC(SCCN)C2=O)cc1` (stereo unspecified), the IC50 at Leucine aminopeptidase was 12 µM (active).
On to `Cc1cccc(N=C(S)N2CCC(N(C)CC3CCCO3)CC2)c1` (stereo unspecified), for which the EC50 in “cells [4]” and in the assay “cells [5]” was > 350 µM (not active) in each case.
In the case of `CC(C)=CC1C(C(=O)Nc2ccc(Br)cn2)C1(C)C` (stereo unspecified), the IC50 in assay [10] is reported as 6.34 µM (not active). The CC50 in assay [11] was > 40 µM (active).
Consider `CN1C2CCC1/C(=C/c1cccn1C)C(=O)/C2=C\c1cccn1C`, for which the IC50 at Leucine aminopeptidase is 51.9 µM (active).
Same read-out and setting: as for `Nc1[nH]nc2nc(N3CCCC3)nc(-c3ccccc3)c12`, the figure is 33.7 µM (active).
With `CN1CCN(Cc2nc3ccccc3c(=O)n2Cc2nc(-c3ccccc3F)cs2)CC1`, the EC50 in “cells [4]” is 45.4 µM (active); in “cells [5]” it was > 350 µM (not active).
Take `CCc1nc2c(OCc3ccc(Cl)cc3)cccn2c1N(C=O)Cc1ccccc1`: the IC50 at Fatty acid synthase [1] is 6.9 µM (active); at Fatty acid synthase [2], 3.71 µM (active).
The like results for `COc1ccc([N+](=O)[O-])cc1NC(=O)C1(c2ccccc2)CCOCC1` were, in that order, 19.6 µM (active) and 16.5 µM (active).
As to `O=C1NCCN(Cc2cccc(Oc3ccccc3)c2)C1CC(=O)N1CCCCC1` (stereo unspecified), the AC50 in assay [6] is 3.76 µM (active); in [7], 8.77 µM (active); in assay [8], 10.9 µM (active); in assay [9], 11.1 µM (active).
In the case of `COc1ccc(-c2cc(=O)oc3c(C)c(OCc4nn[nH]n4)ccc23)cc1`, the values for the IC50 on Fatty acid synthase [1] and on Fatty acid synthase [2] were 9.18 µM (active) and 5.32 µM (active), respectively.
The like results for `CC(=O)N1N=C(c2cccc([N+](=O)[O-])c2)OC1c1cccc(Br)c1` (stereo unspecified) were, in that order, 9.14 µM (active) and 11.9 µM (active).
Regarding `CC[C@@]12C(=O)N(c3ccccc3)C(=O)N1[C@H](c1ccc(OC)cc1)[C@@H]1C(=O)N(C(C)(C)C)C(=O)[C@@H]12`, the AC50 in assay [6] was 1.22 µM (active); in [7], 3.89 µM (active); in assay [8], 1.67 µM (active); in [9] it was 2.68 µM (active).
Regarding `COc1cccc(N/N=C(\C#N)S(=O)(=O)C(C)(C)C)c1`, the IC50 at Leucine aminopeptidase is 26.7 µM (active).
`C[C@@]12CC(=O)NC1N(C(=O)c1cccc(C(F)(F)F)c1)C(c1ccccc1O)C2` (stereo partly specified): the AC50 in assay [6] was 3.74 µM (active); in assay [7], 26.7 µM (active); in assay [8], 7.54 µM (active); in assay [9] it was 7.18 µM (active).
In the case of `O=C(c1cc2ccccc2o1)N1CCN(Cc2ccc3c(c2)OCO3)CC1`, the EC50 in “cells [4]” and in “cells [5]” was > 350 µM (not active) each time.
For the molecule `Cc1onc(-c2c(Cl)cccc2Cl)c1C(=O)N=C(N)N1CCCC1`, the EC50 in the assay “cells [4]” and in “cells [5]” was > 350 µM (not active) in each case.
Turning to `CC1CCN(C(=O)COC(=O)c2cc([N+](=O)[O-])ccc2N2CCOCC2)CC1`, the IC50 on Fatty acid synthase [1] is 3.58 µM (active); on Fatty acid synthase [2] it was 5.23 µM (active).
As to `O=C(Cn1ncc2c(=O)oc3ccccc3c21)N1CCC(N2CCCCC2)CC1`, the AC50 was 2.31 µM (active) in [7] and 38.2 µM (active) in assay [9].
Regarding `CC1=NNC(=O)C1CCC(=O)N/N=C\c1cccc(Cl)c1` (stereo unspecified), the half-maximal inhibitory concentration (IC50) at Leucine aminopeptidase was 20.9 µM (active).
For `CCN(CC)c1ccc(NC(=O)Cn2nnc(-c3cccc(OC)c3OC)n2)c(C)c1`, the IC50 at Leucine aminopeptidase was < 1 µM (active). In addition, the EC50 in “cells [4]” and in “cells [5]” was > 350 µM (not active) in each case.
For the molecule `COC(=O)c1cc(C(=O)NCc2ccc3c(c2)OCO3)cc([N+](=O)[O-])c1`, the IC50 is 11.1 µM (active) at Fatty acid synthase [1] and 11.7 µM (active) on Fatty acid synthase [2].
As for `CCCc1nc2ccccc2c(=O)n1/N=C/c1ccccc1O`, the EC50 in the assay “cells [4]” and in “cells [5]” was > 350 µM (not active) in each case.
In the case of `Cc1ccc(S(=O)(=O)c2nnn3c2nc(N2CCC(C(N)=O)CC2)c2ccccc23)cc1C`, the IC50 on Fatty acid synthase [1] is 11.4 µM (active); on Fatty acid synthase [2], 8.84 µM (active).
The corresponding values for `COc1ccc(CN(C)C(=O)COC(=O)c2cc([N+](=O)[O-])ccc2N2CCCC2)c(OC)c1OC` are 5.42 µM (active) and 6.71 µM (active).
The corresponding values for `CCOC(=O)[C@@H]1[C@H]2COc3cc(OC)ccc3[C@H]2N2C(=O)N(c3cccc(Cl)c3)C(=O)[C@@]12C` are 23.7 µM (inactive) and 13.6 µM (active).
With `C=CCNC(=O)/C(=C/c1cn(-c2ccccc2)nc1-c1cccc([N+](=O)[O-])c1)NC(=O)c1ccccc1`, the EC50 in “cells [4]” and in the assay “cells [5]” was > 350 µM (not active) throughout.
Take `CN(c1ccccc1)S(=O)(=O)c1cccc(NC(=O)CCNC(=O)c2ccc([N+](=O)[O-])cc2)c1`: the figures for the IC50 on Fatty acid synthase [1] and on Fatty acid synthase [2] were 7.63 µM (active) and 9.59 µM (active), respectively.

The values above are taken from ChEMBL document CHEMBL1201862, “PubChem BioAssay data set” (2004).
